Data reported in ChEMBL document CHEMBL4043207, “Discovery of a novel, CNS penetrant M4 PAM chemotype based on a 6-fluoro-4-(piperidin-1-yl)quinoline-3-carbonitrile core” (Bioorg Med Chem Lett, 2017).

What was measured:
[1] = molecular target: T1, Muscarinic acetylcholine receptor M4 (Homo sapiens, UniProt P08173); assay: Positive allosteric modulation of human M4 receptor expressed in CHO cells co-expressing Gqi5 assessed as increase in acetylcholine-induced calcium mobilization; type: functional, cell-based
T1 sequence (P08173 whole entry): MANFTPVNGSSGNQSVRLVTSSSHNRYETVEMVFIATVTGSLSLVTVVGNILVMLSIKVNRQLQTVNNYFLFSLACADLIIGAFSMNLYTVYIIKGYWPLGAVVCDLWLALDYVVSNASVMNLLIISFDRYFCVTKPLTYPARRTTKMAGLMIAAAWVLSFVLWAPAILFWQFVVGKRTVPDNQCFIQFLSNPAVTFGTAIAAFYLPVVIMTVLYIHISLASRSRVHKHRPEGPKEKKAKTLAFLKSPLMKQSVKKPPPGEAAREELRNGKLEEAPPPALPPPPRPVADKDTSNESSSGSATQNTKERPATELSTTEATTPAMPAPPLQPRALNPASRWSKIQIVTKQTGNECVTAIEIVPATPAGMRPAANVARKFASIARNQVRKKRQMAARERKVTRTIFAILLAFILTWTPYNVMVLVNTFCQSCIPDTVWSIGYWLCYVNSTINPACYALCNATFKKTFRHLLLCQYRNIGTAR

[2] = molecular target: T2, Muscarinic acetylcholine receptor M4 (Homo sapiens) (UniProt P08173); assay: Positive allosteric modulation of human M4 receptor expressed in CHO cells co-expressing Gqi5 assessed as increase in acetylcholine-induced calcium mobilization relative to acetylcholine; type: functional, cell-based
T2 sequence (whole entry): T1 sequence (P08173 whole entry)

[3] = Ratio of unbound concentration in brain to plasma in rat; type: ADME
[4] = Brain to plasma permeability coefficient, Kp of the compound in rat; type: ADME
[5] = Clearance in rat hepatocytes; type: ADME, cell-based, Hepatocyte
[6] = Clearance in human hepatocytes; type: ADME, cell-based, Hepatocyte
[7] = molecular target: T3, Muscarinic acetylcholine receptor M4 (Rattus norvegicus, UniProt P08485); assay: Positive allosteric modulation of rat M4 receptor assessed as increase in acetylcholine-induced response
T3 sequence (P08485 whole entry): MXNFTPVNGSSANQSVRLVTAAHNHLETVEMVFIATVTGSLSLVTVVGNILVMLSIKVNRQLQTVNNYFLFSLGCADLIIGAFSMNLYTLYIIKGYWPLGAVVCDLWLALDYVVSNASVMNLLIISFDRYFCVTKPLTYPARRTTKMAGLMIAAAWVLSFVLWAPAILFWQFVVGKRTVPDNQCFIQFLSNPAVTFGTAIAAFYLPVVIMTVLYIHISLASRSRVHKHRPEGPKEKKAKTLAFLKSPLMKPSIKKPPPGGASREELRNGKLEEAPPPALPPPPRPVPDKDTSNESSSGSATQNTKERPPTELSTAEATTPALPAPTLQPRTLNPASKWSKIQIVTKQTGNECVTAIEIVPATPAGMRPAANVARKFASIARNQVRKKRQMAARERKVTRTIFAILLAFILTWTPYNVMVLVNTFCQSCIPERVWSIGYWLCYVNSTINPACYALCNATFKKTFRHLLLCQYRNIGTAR

[8] = Fraction unbound in human plasma; type: ADME, cell-free
[9] = Fraction unbound in rat plasma; type: ADME, cell-free
[10] = molecular target: T4, Muscarinic acetylcholine receptor M4 (Rattus norvegicus) (UniProt P08485); assay: Positive allosteric modulation of rat M4 receptor assessed as increase in acetylcholine-induced response relative to acetylcholine
T4 sequence (whole entry): T3 sequence (P08485 whole entry)

[11] = Clearance in rat plasma at 0.2 mg/kg administered as iv cassette dose; type: ADME, organism-based
[12] = Half life in rat plasma at 0.2 mg/kg administered as iv cassette dose; type: ADME, organism-based
[13] = Volume of distribution at steady state in rat plasma at 0.2 mg/kg administered as iv cassette dose; type: ADME, organism-based; conditions: read-out: Vdss
[14] = Clearance in dog plasma at 0.2 mg/kg administered as iv cassette dose; type: ADME, organism-based, Canis lupus familiaris
[15] = Half life in dog plasma at 0.2 mg/kg administered as iv cassette dose; type: ADME, organism-based, Canis lupus familiaris
[16] = Volume of distribution at steady state in dog plasma at 0.2 mg/kg administered as iv cassette dose; type: ADME, organism-based, Canis lupus familiaris; conditions: read-out: Vdss
[17] = tested on: Plasma; assay: Fraction unbound in dog plasma at 0.2 mg/kg administered as iv casette dose; type: ADME, organism-based, Canis lupus familiaris; conditions: in vivo
[18] = Fraction unbound in rat brain; type: ADME, tissue-based
[19] = Brain to plasma permeability coefficient, Kp of the compound in Sprague-Dawley rat at 0.1 to 0.2 mg/kg, iv administered as cassette dose after 25 mins; type: ADME, organism-based; conditions: brain and plasma
[20] = Ratio of unbound concentration in brain to plasma in Sprague-Dawley rat at 0.1 to 0.2 mg/kg, iv administered as cassette dose after 25 mins; type: ADME, organism-based; conditions: brain and plasma, read-out: K(p,uu,brain)
[21] = tested on: MDR1 (P-gp); assay: Efflux ratio of apparent permeability in MDCK-MDR1 cells; type: ADME, cell-based, Canis lupus familiaris; conditions: dog
[22] = Apparent permeability in MDCK-MDR1 cells; type: ADME, cell-based, Canis lupus familiaris; conditions: dog

N#Cc1cnc2ccc(F)cc2c1N1CCC(C(=O)Nc2ccc(F)c(F)c2)CC1
EC50 ([1]; read-out: EC50): 565 nM
Emax [2]: 52%

N#Cc1ccc(OC2CCN(c3c(C#N)cnc4ccc(F)cc34)CC2)cn1
EC50 ([1]; read-out: EC50): > 10000 nM
Emax [2]: 49%

Cc1cc(C)c(OC2CCN(c3c(C#N)cnc4ccc(F)cc34)CC2)cn1
EC50 ([1]; read-out: EC50): > 10000 nM
EC50 ([1]; read-out: pEC50 (converted)): > 31600 nM

COc1ccc(CNC(=O)C2CCN(c3c(C#N)cnc4ccc(F)cc34)CC2)cc1F
EC50 ([1]; read-out: EC50): 1090 nM
EC50 ([1]; read-out: pEC50 (converted)): 1050 nM
Emax [2]: 65%
K(p,uu,brain) [3]: 0.26
Kp [4]: 0.29
CLhep predicted [5]: 61 mL/min/kg
CLhep predicted [6]: 19 mL/min/kg

N#Cc1cnc2ccc(F)cc2c1N1CCC(C(=O)Nc2ccncc2)CC1
EC50 ([1]; read-out: EC50): 147 nM
Emax [2]: 73%

N#Cc1cnc2ccc(F)cc2c1N1CCC(C(=O)N2CCc3ccccc3C2)CC1
EC50 ([1]; read-out: EC50): 652 nM
Emax [2]: 81%

N#Cc1cnc2ccc(F)cc2c1N1CCC(C(=O)NCc2ccccc2)CC1
EC50 ([1]; read-out: pEC50 (converted)): 1230 nM
EC50 [7]: 2560 nM
Emax [2]: 68 to 78%
fraction unbound [8]: 0.031
fraction unbound [9]: 0.028
CLhep predicted [5]: 61 mL/min/kg
CLhep predicted [6]: 17 mL/min/kg
Emax [10]: 49%

COc1ccc(CNC(=O)C2CCN(c3c(C#N)cnc4ccc(F)cc34)CC2)cc1
EC50 ([1]; read-out: EC50): 664 nM
EC50 ([1]; read-out: pEC50 (converted)): 617 nM
Emax [2]: 60%

Cc1ccc(OC2CCN(c3c(C#N)cnc4ccc(F)cc34)CC2)cn1
EC50 ([1]; read-out: EC50): 197 nM
EC50 [7]: 437 nM
Emax [2]: 79%
clearance [11]: 36 mL/min/kg
half-life [12]: 1.7 h
Vd [13]: 3.2 L/kg
clearance [14]: 41 mL/min/kg
half-life [15]: 1.6 h
Vd [16]: 4 L/kg
Fu [17]: 0.045
fraction unbound [8]: 0.024
fraction unbound [9]: 0.031
CLhep predicted [5]: 52 mL/min/kg
CLhep predicted [6]: 15 mL/min/kg
fraction unbound [18]: 0.014
Kp at 25 min [19]: 5.25 to 5.3
Kp uu at 25 min [20]: 2.37 to 2.4
efflux ratio [21]: 1.1
Papp [22]: 28 ×10⁻⁶ cm/s
Emax [10]: 74%

N#Cc1cnc2ccc(F)cc2c1N1CCC(Oc2ccc(F)nc2)CC1
EC50 ([1]; read-out: EC50): 512 nM
EC50 ([1]; read-out: pEC50 (converted)): 490 nM
Emax [2]: 83%

Cc1ccc(OC2CCN(c3c(C#N)cnc4ccc(F)cc34)CC2)c(C)n1
EC50 ([1]; read-out: EC50): > 10000 nM
EC50 ([1]; read-out: pEC50 (converted)): > 31600 nM

Cc1ccc(OC2CCN(c3c(C#N)cnc4c(C)cc(F)cc34)CC2)cn1
EC50 ([1]; read-out: EC50): 2070 nM
Emax [2]: 82%

N#Cc1cnc2ccc(F)cc2c1N1CCC(Oc2cccnc2)CC1
EC50 ([1]; read-out: EC50): 1300 nM
Emax [2]: 80%

N#Cc1cnc2ccc(F)cc2c1N1CCC(C(=O)N2CCOCC2)CC1
EC50 ([1]; read-out: EC50): 6440 nM
Emax [2]: 78%

N#Cc1cnc2ccc(F)cc2c1N1CCC(C(=O)Nc2ccc(S(N)(=O)=O)cc2)CC1
EC50 ([1]; read-out: EC50): 248 nM
EC50 ([1]; read-out: pEC50 (converted)): 229 nM
Emax [2]: 63%
fraction unbound [8]: 0.064
fraction unbound [9]: 0.016
CLhep predicted [5]: 34 mL/min/kg
CLhep predicted [6]: 13 mL/min/kg
fraction unbound [18]: 0.01
Kp at 25 min [19]: 0.16
Kp uu at 25 min [20]: 0.1
efflux ratio [21]: 83

Cc1ccc(OC2CCN(c3c(C#N)cnc4cc(F)c(F)cc34)CC2)cn1
EC50 ([1]; read-out: EC50): 571 nM
EC50 ([1]; read-out: pEC50 (converted)): 562 nM
Emax [2]: 92%
